Experimental data: ChEMBL document CHEMBL1275492, “In vitro activity of ceftobiprole against pathogens from two phase 3 clinical trials of complicated skin and skin structure infections” (2008)
≈ marks a conversion by molar mass, not a printed value.

Tests used:
Assay type in all cases: functional
[1] = system: Enterobacter cloacae; assay: Antibacterial activity against Enterobacter cloacae obtained from complicated skin and skin structure infections by agar dilution method
[2] = system: Acinetobacter baumannii; assay: Antibacterial activity against Acinetobacter baumannii obtained from complicated skin and skin structure infections by agar dilution method
[3] = system: Pseudomonas fluorescens; assay: Antibacterial activity against Pseudomonas fluorescens obtained from complicated skin and skin structure infections by agar dilution method
[4] = system: Salmonella; assay: Antibacterial activity against Salmonella spp. obtained from complicated skin and skin structure infections by agar dilution method
[5] = system: Providencia stuartii; assay: Antibacterial activity against Providencia stuartii obtained from complicated skin and skin structure infections by agar dilution method
[6] = system: Morganella morganii; assay: Antibacterial activity against Morganella morganii obtained from complicated skin and skin structure infections by agar dilution method
[7] = system: Klebsiella aerogenes; assay: Antibacterial activity against Enterobacter aerogenes obtained from complicated skin and skin structure infections by agar dilution method
[8] = system: Proteus mirabilis; assay: Antibacterial activity against Proteus mirabilis obtained from complicated skin and skin structure infections by agar dilution method
[9] = system: Citrobacter braakii; assay: Antibacterial activity against Citrobacter braakii obtained from complicated skin and skin structure infections by agar dilution method
[10] = system: Stenotrophomonas maltophilia; assay: Antibacterial activity against Stenotrophomonas maltophilia obtained from complicated skin and skin structure infections by agar dilution method
[11] = system: Klebsiella pneumoniae; assay: Antibacterial activity against Klebsiella pneumoniae obtained from complicated skin and skin structure infections by agar dilution method
[12] = system: Escherichia coli; assay: Antibacterial activity against Escherichia coli obtained from complicated skin and skin structure infections by agar dilution method
[13] = system: Enterobacter amnigenus; assay: Antibacterial activity against Enterobacter amnigenus obtained from complicated skin and skin structure infections by agar dilution method; conditions: Lelliottia amnigena
[14] = system: Citrobacter freundii; assay: Antibacterial activity against Citrobacter freundii obtained from complicated skin and skin structure infections by agar dilution method
[15] = system: Pseudomonas aeruginosa; assay: Antibacterial activity against Pseudomonas aeruginosa obtained from complicated skin and skin structure infections by agar dilution method
[16] = system: Proteus vulgaris; assay: Antibacterial activity against Proteus vulgaris obtained from complicated skin and skin structure infections by agar dilution method
[17] = system: Proteus penneri; assay: Antibacterial activity against Proteus penneri obtained from complicated skin and skin structure infections by agar dilution method
[18] = system: Klebsiella oxytoca; assay: Antibacterial activity against Klebsiella oxytoca obtained from complicated skin and skin structure infections by agar dilution method
[19] = system: Serratia marcescens; assay: Antibacterial activity against Serratia marcescens obtained from complicated skin and skin structure infections by agar dilution method

Row | Compound | MIC50 [1] [µg/mL] | MIC90 [1] [µg/mL] | MIC50 [2] [µg/mL] | MIC90 [2] [µg/mL] | MIC50 [3] [µg/mL] | MIC90 [3] [µg/mL] | MIC50 [4] [µg/mL] | MIC90 [4] [µg/mL] | MIC50 [5] [µg/mL] | MIC90 [5] [µg/mL] | MIC50 [6] [µg/mL] | MIC90 [6] [µg/mL] | MIC50 [7] [µg/mL] | MIC90 [7] [µg/mL] | MIC50 [8] [µg/mL] | MIC90 [8] [µg/mL] | MIC50 [9] [µg/mL] | MIC90 [9] [µg/mL] | MIC50 [15] [µg/mL] | MIC90 [15] [µg/mL] | also measured
1 | C[C@@H](O)[C@H]1C(=O)N2C(C(=O)O)=C(S[C@@H]3CN[C@H](C(=O)N(C)C)C3)[C@H](C)[C@H]12 [MEROPENEM] | 0.03 (≈ 0.0782 µM) | ≤ 0.12 | 2 (≈ 5.22 µM) | > 32 | 2 (≈ 5.22 µM) | > 32 | 0.03 (≈ 0.0782 µM) | ≤ 0.12 | 0.03 (≈ 0.0782 µM) | ≤ 0.12 | ≤ 0.12 | 0.12 (≈ 0.313 µM) | 0.03 (≈ 0.0782 µM) | ≤ 0.12 | 0.06 (≈ 0.156 µM) | ≤ 0.12 | 0.03 (≈ 0.0782 µM) | ≤ 0.12 | 4 (≈ 10.4 µM) | 8 (≈ 20.9 µM) | MIC50 [10]: 2 µg/mL (≈ 5.22 µM); MIC90 [10]: > 32 µg/mL; MIC50 [11]: 0.03 µg/mL (≈ 0.0782 µM); MIC90 [11]: ≤ 0.12 µg/mL; MIC [12]: 0.015 µg/mL (≈ 0.0391 µM); MIC50 [12]: 0.015 µg/mL (≈ 0.0391 µM); MIC90 [12]: ≤ 0.12 µg/mL; MIC50 [13]: 0.03 µg/mL (≈ 0.0782 µM); MIC90 [13]: ≤ 0.12 µg/mL; MIC50 [14]: 0.03 µg/mL (≈ 0.0782 µM); MIC90 [14]: ≤ 0.12 µg/mL; MIC50 [16]: 0.03 µg/mL (≈ 0.0782 µM); MIC90 [16]: ≤ 0.12 µg/mL; MIC50 [17]: 0.03 µg/mL (≈ 0.0782 µM); MIC90 [17]: ≤ 0.12 µg/mL; MIC50 [18]: 0.03 µg/mL (≈ 0.0782 µM); MIC90 [18]: ≤ 0.12 µg/mL; MIC50 [19]: 0.03 µg/mL (≈ 0.0782 µM); MIC90 [19]: ≤ 0.12 µg/mL
2 | CO/N=C(\C(=O)N[C@@H]1C(=O)N2C(C(=O)O)=C(CSc3nc(=O)c(O)nn3C)CS[C@H]12)c1csc(N)n1 [CEFTRIAXONE] | ≤ 0.25 | 64 (≈ 115 µM) | > 32 | > 128 | > 32 | > 128 | 0.06 (≈ 0.108 µM) | 64 (≈ 115 µM) | 0.06 (≈ 0.108 µM) | 64 (≈ 115 µM) | 0.03 (≈ 0.0541 µM) | > 128 | 0.06 (≈ 0.108 µM) | 64 (≈ 115 µM) | ≤ 0.015 | 4 (≈ 7.21 µM) | 0.06 (≈ 0.108 µM) | 64 (≈ 115 µM) | 64 (≈ 115 µM) | > 128 | MIC50 [10]: > 32 µg/mL; MIC90 [10]: > 128 µg/mL; MIC50 [11]: 0.12 µg/mL (≈ 0.216 µM); MIC90 [11]: 64 µg/mL (≈ 115 µM); MIC50 [12]: 0.06 µg/mL (≈ 0.108 µM); MIC90 [12]: 0.25 µg/mL (≈ 0.451 µM); MIC50 [13]: 0.06 µg/mL (≈ 0.108 µM); MIC90 [13]: 64 µg/mL (≈ 115 µM); MIC50 [14]: 0.06 µg/mL (≈ 0.108 µM); MIC90 [14]: 64 µg/mL (≈ 115 µM); MIC50 [16]: 0.06 µg/mL (≈ 0.108 µM); MIC90 [16]: 64 µg/mL (≈ 115 µM); MIC50 [17]: 0.06 µg/mL (≈ 0.108 µM); MIC90 [17]: 64 µg/mL (≈ 115 µM); MIC50 [18]: 0.06 µg/mL (≈ 0.108 µM); MIC90 [18]: 64 µg/mL (≈ 115 µM); MIC50 [19]: 0.06 µg/mL (≈ 0.108 µM); MIC90 [19]: 64 µg/mL (≈ 115 µM)
3 | GENTAMICIN | – | – | – | – | – | – | – | – | – | – | – | – | – | – | – | – | – | – | 4 | > 16 | –
4 | NCC[C@H](O)C(=O)N[C@@H]1C[C@H](N)[C@@H](O[C@H]2O[C@H](CN)[C@@H](O)[C@H](O)[C@H]2O)[C@H](O)[C@H]1O[C@H]1O[C@H](CO)[C@@H](O)[C@H](N)[C@H]1O [AMIKACIN] | 2 (≈ 3.42 µM) | 8 (≈ 13.7 µM) | 16 (≈ 27.3 µM) | > 128 | 16 (≈ 27.3 µM) | > 128 | 2 (≈ 3.42 µM) | 8 (≈ 13.7 µM) | 2 (≈ 3.42 µM) | 8 (≈ 13.7 µM) | 2 (≈ 3.42 µM) | 4 (≈ 6.83 µM) | 2 (≈ 3.42 µM) | 8 (≈ 13.7 µM) | 4 (≈ 6.83 µM) | 16 (≈ 27.3 µM) | 2 (≈ 3.42 µM) | 8 (≈ 13.7 µM) | 8 (≈ 13.7 µM) | 64 (≈ 109 µM) | MIC50 [10]: 16 µg/mL (≈ 27.3 µM); MIC90 [10]: > 128 µg/mL; MIC [11]: 1 µg/mL (≈ 1.71 µM); MIC50 [11]: 1 µg/mL (≈ 1.71 µM); MIC90 [11]: 64 µg/mL (≈ 109 µM); MIC50 [12]: 2 µg/mL (≈ 3.42 µM); MIC90 [12]: 4 µg/mL (≈ 6.83 µM); MIC50 [13]: 2 µg/mL (≈ 3.42 µM); MIC90 [13]: 8 µg/mL (≈ 13.7 µM); MIC50 [14]: 2 µg/mL (≈ 3.42 µM); MIC90 [14]: 8 µg/mL (≈ 13.7 µM); MIC50 [16]: 2 µg/mL (≈ 3.42 µM); MIC90 [16]: 8 µg/mL (≈ 13.7 µM); MIC50 [17]: 2 µg/mL (≈ 3.42 µM); MIC90 [17]: 8 µg/mL (≈ 13.7 µM); MIC50 [18]: 2 µg/mL (≈ 3.42 µM); MIC90 [18]: 8 µg/mL (≈ 13.7 µM); MIC50 [19]: 2 µg/mL (≈ 3.42 µM); MIC90 [19]: 8 µg/mL (≈ 13.7 µM)
